Source: patent US4011390A, “Semi-synthetic aminocyclitol aminoglycoside antibiotics and methods for the preparation thereof” (Schering-Plough Corporation, priority 1974, dated 1977)
Like-named read-outs stand apart in the source and are kept apart here.

Columns and labels:
Assay in all cases: Protection Tests in Mice
Type in all cases: in vivo
Escherichia coli = system: Escherichia coli
Text: (§1) In vivo Activity of the Mutamicin 1 and Sisomicin
(§2) Protection Tests in Mice

Pseudomonas aeruginosa = system: Pseudomonas aeruginosa
Text: as §1, §2

Staphylococcus = Staphylococcus Gray, read-out: PD50
Text: as §1, §2

CN[C@@H]1[C@@H](O)[C@@H](O[C@@H]2[C@@H](O)[C@H](O[C@H]3OC(CN)=CC[C@H]3N)[C@@H](N)C[C@H]2N)OC[C@]1(C)O [Sisomicin, O-2,6-Diamino-2,3,4,6-tetradeoxy-α-D-glycero-hex-4-eno-pryanosyl(1→4)-O-[3-deoxy-4-C-methyl-3-(methylamino)-B-L-arabinopyranosyl(1→6)] -2-deoxy-D-streptamine, reference compound]
ED50 (Escherichia coli; Escherichia coli 6922, read-out: PD50): 2 mg/kg | ED50 (Escherichia coli; Escherichia coli Sc., read-out: PD50): 1.7 mg/kg | ED50 (Pseudomonas aeruginosa; Pseudomonas aeruginosa 2552, read-out: PD50): 2.8 mg/kg | ED50 (Pseudomonas aeruginosa; Pseudomonas aeruginosa 2557, read-out: PD50): 2.7 mg/kg | ED50 (Pseudomonas aeruginosa; sc, Pseudomonas aeruginosa Sc., read-out: PD50): 1.1 mg/kg | ED50 (Staphylococcus): 1.8 mg/kg
